Patent publication US11447466B2, “Substituted indole compounds useful as inhibitors of TLR7/8/9” (BRISTOL-MYERS SQUIBB COMPANY, priority 2017, dated 2022)

Tests used:
Type in all cases: cell-based
human TLR7 = biological target: T1, human TLR7 (Homo sapiens, UniProt Q9NYK1); test: TLR7 inhibition reporter assay (HEK-Blue SEAP reporter, gardiquimod stimulation); conditions: HEK-Blue cells overexpressing human TLR7, SEAP reporter, gardiquimod 7.5 μM, 22 hour incubation
T1 construct: host or cells: HEK-Blue cells
T1 sequence (Q9NYK1 27-1049): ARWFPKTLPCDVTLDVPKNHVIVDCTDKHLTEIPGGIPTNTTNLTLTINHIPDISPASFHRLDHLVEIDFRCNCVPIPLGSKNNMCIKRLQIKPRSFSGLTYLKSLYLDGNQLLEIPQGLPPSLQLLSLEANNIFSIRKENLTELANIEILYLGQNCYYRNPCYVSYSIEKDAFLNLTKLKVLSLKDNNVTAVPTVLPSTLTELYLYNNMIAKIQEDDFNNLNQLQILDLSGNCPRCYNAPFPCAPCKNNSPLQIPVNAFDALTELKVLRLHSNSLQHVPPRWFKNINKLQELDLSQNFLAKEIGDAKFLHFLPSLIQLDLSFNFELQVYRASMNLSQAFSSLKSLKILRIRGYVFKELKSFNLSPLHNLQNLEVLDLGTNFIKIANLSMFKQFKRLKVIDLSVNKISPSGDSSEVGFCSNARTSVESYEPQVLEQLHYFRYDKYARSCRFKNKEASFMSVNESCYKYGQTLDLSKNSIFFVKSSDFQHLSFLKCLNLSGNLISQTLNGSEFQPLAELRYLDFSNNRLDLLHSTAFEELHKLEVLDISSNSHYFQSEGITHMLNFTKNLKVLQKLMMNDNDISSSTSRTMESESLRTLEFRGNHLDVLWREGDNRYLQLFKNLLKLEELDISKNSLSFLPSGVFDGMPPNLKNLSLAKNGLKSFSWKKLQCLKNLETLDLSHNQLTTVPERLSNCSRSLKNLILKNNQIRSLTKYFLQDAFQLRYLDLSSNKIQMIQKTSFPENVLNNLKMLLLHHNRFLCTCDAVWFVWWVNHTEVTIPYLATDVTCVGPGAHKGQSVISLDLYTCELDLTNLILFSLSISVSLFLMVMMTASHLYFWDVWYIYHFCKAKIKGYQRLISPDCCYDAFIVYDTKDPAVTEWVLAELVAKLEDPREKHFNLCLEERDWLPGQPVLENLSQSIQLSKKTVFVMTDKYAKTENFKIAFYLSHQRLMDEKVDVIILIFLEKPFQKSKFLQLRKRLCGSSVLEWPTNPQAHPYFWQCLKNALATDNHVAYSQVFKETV
Procedure, shortened: (§1)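 Dose–response from 0.05 nM to 50 μM was run in HEK-Blue human TLR7, TLR8 and TLR9 reporter cells. After 30 min at room temperature with compound, ligand was added (TLR7 gardiquimod 7.5 μM; TLR8 R848 15.9 μM; TLR9 ODN2006 5 nM) and SEAP measured next day, at 22 h.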

human TLR8 = biological target: T2, human TLR8 (Homo sapiens, UniProt Q9NR97); test: TLR8 inhibition reporter assay (HEK-Blue SEAP reporter, R848 stimulation); conditions: HEK-Blue cells overexpressing human TLR8, SEAP reporter, R848 15.9 μM, 22 hour incubation
T2 construct: host or cells: HEK-Blue cells
T2 sequence (Q9NR97 27-1041): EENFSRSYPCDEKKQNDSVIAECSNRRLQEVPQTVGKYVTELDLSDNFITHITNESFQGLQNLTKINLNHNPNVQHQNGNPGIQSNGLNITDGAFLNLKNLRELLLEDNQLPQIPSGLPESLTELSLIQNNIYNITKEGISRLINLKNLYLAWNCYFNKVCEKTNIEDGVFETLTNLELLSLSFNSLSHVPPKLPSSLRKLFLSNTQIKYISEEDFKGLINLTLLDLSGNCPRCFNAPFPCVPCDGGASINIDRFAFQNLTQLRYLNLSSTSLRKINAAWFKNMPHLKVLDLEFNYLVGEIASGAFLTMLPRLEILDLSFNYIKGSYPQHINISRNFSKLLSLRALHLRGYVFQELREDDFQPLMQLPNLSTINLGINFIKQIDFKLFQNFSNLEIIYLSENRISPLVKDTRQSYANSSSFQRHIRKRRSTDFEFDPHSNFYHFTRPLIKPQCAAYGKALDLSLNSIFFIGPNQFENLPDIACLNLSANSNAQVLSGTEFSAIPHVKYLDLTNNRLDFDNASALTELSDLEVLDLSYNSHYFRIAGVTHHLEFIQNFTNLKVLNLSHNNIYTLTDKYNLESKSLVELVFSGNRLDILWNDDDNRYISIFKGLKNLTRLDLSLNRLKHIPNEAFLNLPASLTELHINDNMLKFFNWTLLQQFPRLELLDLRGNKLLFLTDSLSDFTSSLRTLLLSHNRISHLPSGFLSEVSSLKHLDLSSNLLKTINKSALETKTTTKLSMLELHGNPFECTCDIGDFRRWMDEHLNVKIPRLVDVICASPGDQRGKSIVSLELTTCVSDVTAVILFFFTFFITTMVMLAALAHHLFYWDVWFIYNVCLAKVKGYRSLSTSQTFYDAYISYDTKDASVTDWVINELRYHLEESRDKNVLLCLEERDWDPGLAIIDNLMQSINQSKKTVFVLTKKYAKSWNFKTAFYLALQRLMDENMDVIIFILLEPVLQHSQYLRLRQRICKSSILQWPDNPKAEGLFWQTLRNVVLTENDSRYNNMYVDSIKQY
Procedure, shortened: as §1

human TLR9 = biological target: T3, human TLR9 (Homo sapiens, UniProt Q9NR96); test: TLR9 inhibition reporter assay (HEK-Blue SEAP reporter, ODN2006 stimulation); conditions: HEK-Blue cells overexpressing human TLR9, SEAP reporter, ODN2006 5 nM, 22 hour incubation
T3 construct: host or cells: HEK-Blue cells
T3 sequence (Q9NR96 26-1032): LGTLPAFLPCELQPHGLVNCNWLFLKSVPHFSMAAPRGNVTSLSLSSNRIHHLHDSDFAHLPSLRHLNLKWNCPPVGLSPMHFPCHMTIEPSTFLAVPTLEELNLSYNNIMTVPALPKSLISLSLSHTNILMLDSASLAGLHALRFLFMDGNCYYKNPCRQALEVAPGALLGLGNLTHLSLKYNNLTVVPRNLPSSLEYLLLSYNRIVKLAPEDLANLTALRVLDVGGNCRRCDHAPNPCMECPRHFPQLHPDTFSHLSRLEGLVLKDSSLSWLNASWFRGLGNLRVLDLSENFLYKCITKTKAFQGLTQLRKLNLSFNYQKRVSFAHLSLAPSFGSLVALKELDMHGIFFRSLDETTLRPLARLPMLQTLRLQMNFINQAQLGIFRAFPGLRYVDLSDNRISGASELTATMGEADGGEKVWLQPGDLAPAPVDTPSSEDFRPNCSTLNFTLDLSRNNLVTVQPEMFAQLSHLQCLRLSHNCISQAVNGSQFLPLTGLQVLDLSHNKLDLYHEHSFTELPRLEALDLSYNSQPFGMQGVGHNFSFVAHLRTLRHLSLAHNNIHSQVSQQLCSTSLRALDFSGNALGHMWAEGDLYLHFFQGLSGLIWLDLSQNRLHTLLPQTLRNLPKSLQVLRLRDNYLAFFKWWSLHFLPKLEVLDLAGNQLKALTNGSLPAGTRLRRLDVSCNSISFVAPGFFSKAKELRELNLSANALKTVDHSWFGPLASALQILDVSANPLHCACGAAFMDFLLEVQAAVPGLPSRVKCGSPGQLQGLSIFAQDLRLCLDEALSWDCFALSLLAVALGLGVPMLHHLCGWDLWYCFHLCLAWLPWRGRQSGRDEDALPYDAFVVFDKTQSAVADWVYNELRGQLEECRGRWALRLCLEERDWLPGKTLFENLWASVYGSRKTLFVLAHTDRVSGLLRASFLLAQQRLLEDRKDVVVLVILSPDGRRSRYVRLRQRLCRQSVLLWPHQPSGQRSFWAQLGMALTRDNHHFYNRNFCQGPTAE
Procedure, shortened: as §1

SMILES | IC50 (human TLR7) | IC50 (human TLR8) | IC50 (human TLR9)
CCCN1CCC(c2ccc3[nH]c(-c4cc(-c5cncc(C)c5)c(=O)n(C)c4)c(C(C)C)c3c2)CC1 [Example 332, 5-(3-isopropyl-5-(1-propylpiperidin-4-yl)-1H-indol-2-yl)-1,5′-dimethyl-[3,3′-bipyridin]-2(1H)-one] | 4.9 nM | 1.1 nM | 789 nM
CC(C)c1c(-c2ccc(=O)n(C)n2)[nH]c2ccc(C3CCNCC3)cc12 [Example 5, 6-(3-isopropyl-5-(piperidin-4-yl)-1H-indol-2-yl)-2-methylpyridazin-3(2H)-one] | 179 nM | 107 nM | 763 nM
CC(C)CN1CCC(c2ccc3[nH]c(-c4cc(-c5ccccc5)c(=O)n(C)c4)c(C(C)C)c3c2)CC1 [Example 89, 5-(5-(1-isobutylpiperidin-4-yl)-3-isopropyl-1H-indol-2-yl)-1-methyl-3-phenylpyridin-2(1H)-one] | 16.9 nM | 4.5 nM | 1960 nM
Cc1c(-c2[nH]c3ccc(C4CCN(CC(O)CO)CC4)cc3c2C(C)C)cn(C)c(=O)c1Cl (stereo not drawn) [Example 253, 3-chloro-5-(5-(1-(2,3-dihydroxypropyl)piperidin-4-yl)-3-isopropyl-1H-indol-2-yl)-1,4-dimethylpyridin-2(1H)-one] | 6.1 nM | 5.2 nM | 1240 nM
CCCN1CCC(c2ccc3[nH]c(-c4cc(-c5ccc(NC(C)=O)nc5)c(=O)n(C)c4)c(C(C)C)c3c2)CC1 [Example 335, N-(5′-(3-isopropyl-5-(1-propylpiperidin-4-yl)-1H-indol-2-yl)-1′-methyl-2′-oxo-1′,2′-dihydro-[3,3′-bipyridin]-6-yl)acetamide] | 2.4 nM | 5.9 nM | 529 nM
Cc1nc(-c2[nH]c3ccc(C4CCN(CC(C)(C)O)CC4)cc3c2C(C)C)cn(C)c1=O [Example 312, 5-(5-(1-(2-hydroxy-2-methylpropyl)piperidin-4-yl)-3-isopropyl-1H-indol-2-yl)-1,3-dimethylpyrazin-2(1H)-one] | 35.1 nM | 22.2 nM | 3170 nM
COCCN1CCC(c2ccc3[nH]c(-c4cc(-c5cncnc5)c(=O)n(C)c4)c(C(C)C)c3c2)CC1 [Example 103, 5-(3-isopropyl-5-(1-(2-methoxyethyl)piperidin-4-yl)-1H-indol-2-yl)-1-methyl-3-(pyrimidin-5-yl)pyridin-2(1H)-one] | 9.6 nM | 1.3 nM | 2080 nM
Cc1cc(-c2[nH]c3ccc(C4CCN(Cc5ccc(OC(F)(F)F)cc5)CC4)cc3c2C(C)C)cn(C)c1=O [Example 77, 5-(3-isopropyl-5-(1-(4-(trifluoromethoxy)benzyl)piperidin-4-yl)-1H-indol-2-yl)-1,3-dimethylpyridin-2(1H)-one] | 123 nM | 50.6 nM | 7850 nM
Cc1cc(-c2[nH]c3ccc(C4CCN(C5CCS(=O)(=O)C5)CC4)cc3c2C(C)C)cn(C)c1=O (stereo not drawn) [Example 81, 5-(5-(1-(1,1-dioxidotetrahydrothiophen-3-yl)piperidin-4-yl)-3-isopropyl-1H-indol-2-yl)-1,3-dimethylpyridin-2(1H)-one] | 8.8 nM | 20.3 nM | ≥ 50000 nM
Cc1c(-c2[nH]c3ccc(C4CCN(CC(C)(C)O)CC4)cc3c2C(C)C)cn(C)c(=O)c1C#N [Example 322, 5-(5-(1-(2-hydroxy-2-methylpropyl)piperidin-4-yl)-3-isopropyl-1H-indol-2-yl)-1,4-dimethyl-2-oxo-1,2-dihydropyridine-3-carbonitrile] | 45.7 nM | 1 nM | 4790 nM
Cc1c(-c2[nH]c3ccc(C4CCN(CC5CCCO5)CC4)cc3c2C(C)C)cn(C)c(=O)c1Cl (stereo not drawn) [Example 250, 3-chloro-5-(3-isopropyl-5-(1-((tetrahydrofuran-2-yl)methyl)piperidin-4-yl)-1H-indol-2-yl)-1,4-dimethylpyridin-2(1H)-one] | 6.3 nM | 4.8 nM | 3010 nM
Cc1c(-c2[nH]c3ccc(C4CCN(CCC(F)(F)F)CC4)cc3c2C(C)C)cn(C)c(=O)c1Cl [Example 102, 3-chloro-5-(3-isopropyl-5-(1-(3,3,3-trifluoropropyl)piperidin-4-yl)-1H-indol-2-yl)-1,4-dimethylpyridin-2(1H)-one] | 33.2 nM | 32.4 nM | ≥ 50000 nM
Cc1cc(-c2[nH]c3ccc(C4CCN(C5CCN(C)C5=O)CC4)cc3c2C(C)C)cn(C)c1=O (stereo not drawn) [Example 127, 5-(3-isopropyl-5-(1-(1-methyl-2-oxopyrrolidin-3-yl)piperidin-4-yl)-1H-indol-2-yl)-1,3-dimethylpyridin-2(1H)-one] | 3.7 nM | 5.2 nM | 33600 nM
COc1c(C)c(-c2[nH]c3ccc(C4CCNCC4)cc3c2C(C)C)cn(C)c1=O [Example 29, 5-(3-isopropyl-5-(piperidin-4-yl)-1H-indol-2-yl)-3-methoxy-1,4-dimethylpyridin-2(1H)-one] | 14.1 nM | 50.9 nM | 783 nM
